Source: PubChem BioAssay AID1963826 (Molecular Pharmacology Branch, DTP, NCI, 2024)

System: 926638-142-R-J1-PDC complex spheroid viability
Experiment: Anticancer human tumor 926638-142-R-J1-PDC patient-derived endometrial carcinoma cell line growth inhibition [POLQ]
Settings: for IC50: curve of first compound; for viability, T/C: stronger effect = lower value
Procedure, shortened: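 Three-cell-type spheroids modelling solid tumor plus stroma served as the readout system; POL inhibitors were tested individually and in combination, concentration ranges set by clinical Cmax where known.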
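Further: spheroids exposed to drugs for one week before readout.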
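Wherever viability, T/C is given: percent viability relative to DMSO vehicle control wells set as 100%.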

For C#Cc1c(F)ccc2cc(O)cc(-c3ncc4c(N5CC6CCC(C5)N6)nc(OCC56CCCN5CC(F)C6)nc4c3F)c12 (configuration not stated) + Nc1ccc(C#CCN(C(=O)Cc2ncc(C(F)(F)F)cc2C(F)(F)F)c2ccc(F)cc2)nn1, the IC50 (second compound 0.0316 µM) was greater than 10 µM, the IC50 (second compound 0.1 µM) was greater than 10 µM and the IC50 (second compound 0.316 µM) was greater than 10 µM. The IC50 (second compound 1 µM) was greater than 10 µM, the IC50 (second compound 3.16 µM) was greater than 10 µM and the IC50 (second compound 10 µM) was greater than 10 µM. It also gave a viability, T/C (second compound 0.0316 µM, first compound 0.0316 µM) of 97.8%, a viability, T/C (second compound 0.0316 µM, first compound 0.1 µM) of 95% and a viability, T/C (second compound 0.0316 µM, first compound 0.316 µM) of 83.7%. For the same compound, the viability, T/C (second compound 0.0316 µM, first compound 1 µM) was 80.1%, the viability, T/C (second compound 0.0316 µM, first compound 3.16 µM) was 71.8% and the viability, T/C (second compound 0.0316 µM, first compound 10 µM) was 64.5%. For the same compound, the viability, T/C (second compound 0.1 µM, first compound 0.0316 µM) was 125%, the viability, T/C (second compound 0.1 µM, first compound 0.1 µM) was 83.2% and the viability, T/C (second compound 0.1 µM, first compound 0.316 µM) was 79.1%. For the same compound, the viability, T/C (second compound 0.1 µM, first compound 1 µM) was 82.2%, the viability, T/C (second compound 0.1 µM, first compound 3.16 µM) was 75.9% and the viability, T/C (second compound 0.1 µM, first compound 10 µM) was 71.2%. The viability, T/C (second compound 0.316 µM, first compound 0.0316 µM) was 84.4%, the viability, T/C (second compound 0.316 µM, first compound 0.1 µM) was 101% and the viability, T/C (second compound 0.316 µM, first compound 0.316 µM) was 84.2%. It also gave a viability, T/C (second compound 0.316 µM, first compound 1 µM) of 76.7%, a viability, T/C (second compound 0.316 µM, first compound 3.16 µM) of 79.8% and a viability, T/C (second compound 0.316 µM, first compound 10 µM) of 59.3%. The viability, T/C (second compound 1 µM, first compound 0.0316 µM) was 105%, the viability, T/C (second compound 1 µM, first compound 0.1 µM) was 101% and the viability, T/C (second compound 1 µM, first compound 0.316 µM) was 89.4%. For the same compound, the viability, T/C (second compound 1 µM, first compound 1 µM) was 85.6%, the viability, T/C (second compound 1 µM, first compound 3.16 µM) was 81.2% and the viability, T/C (second compound 1 µM, first compound 10 µM) was 59.2%. It also gave a viability, T/C (second compound 3.16 µM, first compound 0.0316 µM) of 88%, a viability, T/C (second compound 3.16 µM, first compound 0.1 µM) of 93.4% and a viability, T/C (second compound 3.16 µM, first compound 0.316 µM) of 74.2%. It also gave a viability, T/C (second compound 3.16 µM, first compound 1 µM) of 87%, a viability, T/C (second compound 3.16 µM, first compound 3.16 µM) of 80.3% and a viability, T/C (second compound 3.16 µM, first compound 10 µM) of 66.3%. It also gave a viability, T/C (second compound 10 µM, first compound 0.0316 µM) of 99.1%, a viability, T/C (second compound 10 µM, first compound 0.1 µM) of 78.2% and a viability, T/C (second compound 10 µM, first compound 0.316 µM) of 80%. The viability, T/C (second compound 10 µM, first compound 1 µM) was 70.7%, the viability, T/C (second compound 10 µM, first compound 3.16 µM) was 79.3% and the viability, T/C (second compound 10 µM, first compound 10 µM) was 53.1%.
